Test results published in ChEMBL document CHEMBL1275384, “Structure-activity relationships of benzimidazole-based selective inhibitors of the mitogen activated kinase-5 signaling pathway” (2010).

Key:
HL-60(TB) = assay: Cytotoxicity against human HL-60(TB) cells at 10 uM assessed as cell growth relative to control; assay type: functional; conditions: read-out: Activity
[1] = Cytotoxicity against human […] cells at 10 uM assessed as cell growth relative to control; assay type: functional; conditions: read-out: Activity
SR = assay: Cytotoxicity against human SR cells at 10 uM assessed as cell growth relative to control; assay type: functional; conditions: read-out: Activity
HOP-62 = assay: Cytotoxicity against human HOP62 cells at 10 uM assessed as cell growth relative to control; assay type: functional; conditions: read-out: Activity
HOP-92 = assay: Cytotoxicity against human HOP92 cells at 10 uM assessed as cell growth relative to control; assay type: functional; conditions: read-out: Activity
NCI-H23 = assay: Cytotoxicity against human NCI-H23 cells at 10 uM assessed as cell growth relative to control; assay type: functional; conditions: read-out: Activity
NCI-H322M = assay: Cytotoxicity against human NCI-H322M cells at 10 uM assessed as cell growth relative to control; assay type: functional; conditions: read-out: Activity
NCI-H460 = assay: Cytotoxicity against human NCI-H460 cells at 10 uM assessed as cell growth relative to control; assay type: functional; conditions: read-out: Activity
NCI-H522 = assay: Cytotoxicity against human NCI-H522 cells at 10 uM assessed as cell growth relative to control; assay type: functional; conditions: read-out: Activity
COLO 205 = assay: Cytotoxicity against human COLO205 cells at 10 uM assessed as cell growth relative to control; assay type: functional; conditions: read-out: Activity
HCT-116 = assay: Cytotoxicity against human HCT116 cells at 10 uM assessed as cell growth relative to control; assay type: functional; conditions: read-out: Activity
HCT-15 = assay: Cytotoxicity against human HCT15 cells at 10 uM assessed as cell growth relative to control; assay type: functional; conditions: read-out: Activity
HT-29 = assay: Cytotoxicity against human HT-29 cells at 10 uM assessed as cell growth relative to control; assay type: functional; conditions: read-out: Activity
KM12 = assay: Cytotoxicity against human KM12 cells at 10 uM assessed as cell growth relative to control; assay type: functional; conditions: read-out: Activity
SW-620 = assay: Cytotoxicity against human SW620 cells at 10 uM assessed as cell growth relative to control; assay type: functional; conditions: read-out: Activity
SF-268 = assay: Cytotoxicity against human SF268 cells at 10 uM assessed as cell growth relative to control; assay type: functional; conditions: read-out: Activity
SF-295 = assay: Cytotoxicity against human SF295 cells at 10 uM assessed as cell growth relative to control; assay type: functional; conditions: read-out: Activity
SF-539 = assay: Cytotoxicity against human SF539 cells at 10 uM assessed as cell growth relative to control; assay type: functional; conditions: read-out: Activity
SNB-19 = assay: Cytotoxicity against human SNB19 cells at 10 uM assessed as cell growth relative to control; assay type: functional; conditions: read-out: Activity
SNB-75 = assay: Cytotoxicity against human SNB75 cells at 10 uM assessed as cell growth relative to control; assay type: functional; conditions: read-out: Activity
U-251 = assay: Cytotoxicity against human U251 cells at 10 uM assessed as cell growth relative to control; assay type: functional; conditions: read-out: Activity
Malme-3M = assay: Cytotoxicity against human MALME-3M cells at 10 uM assessed as cell growth relative to control; assay type: functional; conditions: read-out: Activity
M14 = assay: Cytotoxicity against human M14 cells at 10 uM assessed as cell growth relative to control; assay type: functional; conditions: read-out: Activity
MDA-MB-435 = assay: Cytotoxicity against human MDA-MB-435 cells at 10 uM assessed as cell growth relative to control; assay type: functional; conditions: read-out: Activity
SK-MEL-2 = assay: Cytotoxicity against human SK-MEL-2 cells at 10 uM assessed as cell growth relative to control; assay type: functional; conditions: read-out: Activity
SK-MEL-28 = assay: Cytotoxicity against human SK-MEL-28 cells at 10 uM assessed as cell growth relative to control; assay type: functional; conditions: read-out: Activity
SK-MEL-5 = assay: Cytotoxicity against human SK-MEL-5 cells at 10 uM assessed as cell growth relative to control; assay type: functional; conditions: read-out: Activity
UACC-257 = assay: Cytotoxicity against human UACC257 cells at 10 uM assessed as cell growth relative to control; assay type: functional; conditions: read-out: Activity
IGROV-1 = assay: Cytotoxicity against human IGROV1 cells at 10 uM assessed as cell growth relative to control; assay type: functional; conditions: read-out: Activity
OVCAR-3 = assay: Cytotoxicity against human OVCAR-3 cells at 10 uM assessed as cell growth relative to control; assay type: functional; conditions: read-out: Activity
OVCAR-5 = assay: Cytotoxicity against human OVCAR5 cells at 10 uM assessed as cell growth relative to control; assay type: functional; conditions: read-out: Activity
OVCAR-8 = assay: Cytotoxicity against human OVCAR8 cells at 10 uM assessed as cell growth relative to control; assay type: functional; conditions: read-out: Activity
NCI/ADR-RES = assay: Cytotoxicity against human NCI/ADR-RES cells at 10 uM assessed as cell growth relative to control; assay type: functional; conditions: read-out: Activity
786-0 = assay: Cytotoxicity against human 786-0 cells at 10 uM assessed as cell growth relative to control; assay type: functional; conditions: read-out: Activity
A498 = assay: Cytotoxicity against human A498 cells at 10 uM assessed as cell growth relative to control; assay type: functional; conditions: read-out: Activity
ACHN = assay: Cytotoxicity against human ACHN cells at 10 uM assessed as cell growth relative to control; assay type: functional; conditions: read-out: Activity
RXF 393 = assay: Cytotoxicity against human RXF393 cells at 10 uM assessed as cell growth relative to control; assay type: functional; conditions: read-out: Activity
UO-31 = assay: Cytotoxicity against human UO31 cells at 10 uM assessed as cell growth relative to control; assay type: functional; conditions: read-out: Activity
MCF7 = assay: Cytotoxicity against human MCF7 cells at 10 uM assessed as cell growth relative to control; assay type: functional; conditions: read-out: Activity
MDA-MB-231 = assay: Cytotoxicity against human MDA-MB-231 cells at 10 uM assessed as cell growth relative to control; assay type: functional; conditions: read-out: Activity
[2] = Cytotoxicity against human Hs 578T cells at 10 uM assessed as cell growth relative to control; assay type: functional; conditions: read-out: Activity
BT-549 = assay: Cytotoxicity against human BT549 cells at 10 uM assessed as cell growth relative to control; assay type: functional; conditions: read-out: Activity
T47D = assay: Cytotoxicity against human T47D cells at 10 uM assessed as cell growth relative to control; assay type: functional; conditions: read-out: Activity
MDA-MB-468 = assay: Cytotoxicity against human MDA-MB-468 cells at 10 uM assessed as cell growth relative to control; assay type: functional; conditions: read-out: Activity
[3] = biological target: T1, Dual specificity mitogen-activated protein kinase kinase 5 (Homo sapiens) (UniProt Q13163); conditions: HEK293, at 10 µM;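 also: MEK5 activity stimulated by EGF, read out as phospho-ERK5 on Western blot after 1 h treatment, expressed relative to control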
T1 sequence (whole entry): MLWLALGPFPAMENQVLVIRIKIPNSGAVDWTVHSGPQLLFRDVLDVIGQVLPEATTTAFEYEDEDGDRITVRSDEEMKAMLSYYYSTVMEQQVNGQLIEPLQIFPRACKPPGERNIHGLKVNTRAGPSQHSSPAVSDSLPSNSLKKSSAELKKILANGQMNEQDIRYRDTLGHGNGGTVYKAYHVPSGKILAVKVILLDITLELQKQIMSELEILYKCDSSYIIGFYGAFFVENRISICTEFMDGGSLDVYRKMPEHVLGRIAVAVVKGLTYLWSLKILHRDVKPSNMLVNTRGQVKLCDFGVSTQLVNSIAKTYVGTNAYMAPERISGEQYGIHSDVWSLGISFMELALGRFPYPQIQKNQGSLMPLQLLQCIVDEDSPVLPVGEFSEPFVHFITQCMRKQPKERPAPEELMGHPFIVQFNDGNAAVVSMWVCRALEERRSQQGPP
Description: Inhibition of EGF-induced MEK5 activity in HEK293 cells assessed as phosphorylated ERK5 level at 10 uM after 1 hr by Western blotting relative to control

COCCCOc1cc(NCc2ccccc2)c2ncn(C(C)C)c2c1 gave a growth at 10 µM (HL-60(TB)) of 100%, a growth at 10 µM [1] of 89.2% and a growth at 10 µM (SR) of 103%. The growth at 10 µM (HOP-62) was 85.7%, the growth at 10 µM (HOP-92) was 90.9% and the growth at 10 µM (NCI-H23) was 109%. The growth at 10 µM (NCI-H322M) was 104%, the growth at 10 µM (NCI-H460) was 85.2% and the growth at 10 µM (NCI-H522) was 127%. For the same compound, the growth at 10 µM (COLO 205) was 100%, the growth at 10 µM (HCT-116) was 100% and the growth at 10 µM (HCT-15) was 110%. The growth at 10 µM (HT-29) was 109%, the growth at 10 µM (KM12) was 100% and the growth at 10 µM (SW-620) was 101%. It also gave a growth at 10 µM (SF-268) of 96.7%, a growth at 10 µM (SF-295) of 97.4% and a growth at 10 µM (SF-539) of 93.5%. The growth at 10 µM (SNB-19) was 90.3%, the growth at 10 µM (SNB-75) was 92% and the growth at 10 µM (U-251) was 95.6%. For the same compound, the growth at 10 µM (Malme-3M) was 113%, the growth at 10 µM (M14) was 104% and the growth at 10 µM (MDA-MB-435) was 110%. It also gave a growth at 10 µM (SK-MEL-2) of 92.7%, a growth at 10 µM (SK-MEL-28) of 115% and a growth at 10 µM (SK-MEL-5) of 95.8%. The growth at 10 µM (UACC-257) was 101%, the growth at 10 µM (IGROV-1) was 90.1% and the growth at 10 µM (OVCAR-3) was 84.9%. It also gave a growth at 10 µM (OVCAR-5) of 91.5%, a growth at 10 µM (OVCAR-8) of 99.3% and a growth at 10 µM (NCI/ADR-RES) of 85.3%. It also gave a growth at 10 µM (786-0) of 95.7%, a growth at 10 µM (A498) of 83.5% and a growth at 10 µM (ACHN) of 95.3%. For the same compound, the growth at 10 µM (RXF 393) was 94.3%, the growth at 10 µM (UO-31) was 79.9% and the growth at 10 µM (MCF7) was 93.2%. It also gave a growth at 10 µM (MDA-MB-231) of 102%, a growth at 10 µM [2] of 84.4% and a growth at 10 µM (BT-549) of 90.1%. For the same compound, the growth at 10 µM (T47D) was 91.9%, the growth at 10 µM (MDA-MB-468) was 104% and the inhibition [3] was 51%.
Compound COc1cc(NCc2ccccc2)c2ncn(C(C)C)c2c1 has a growth at 10 µM (HL-60(TB)) of 50.3%, a growth at 10 µM [1] of 71.5% and a growth at 10 µM (SR) of 51.7%. The growth at 10 µM (HOP-62) was 101%, the growth at 10 µM (HOP-92) was 64.5% and the growth at 10 µM (NCI-H23) was 91.1%. The growth at 10 µM (NCI-H322M) was 115%, the growth at 10 µM (NCI-H460) was 107% and the growth at 10 µM (NCI-H522) was 87%. The growth at 10 µM (COLO 205) was 118%, the growth at 10 µM (HCT-116) was 103% and the growth at 10 µM (HCT-15) was 97.9%. For the same compound, the growth at 10 µM (HT-29) was 109%, the growth at 10 µM (KM12) was 104% and the growth at 10 µM (SW-620) was 146%. For the same compound, the growth at 10 µM (SF-268) was 125%, the growth at 10 µM (SF-295) was 138% and the growth at 10 µM (SF-539) was 96.2%. The growth at 10 µM (SNB-19) was 90.7%, the growth at 10 µM (SNB-75) was 92.3% and the growth at 10 µM (U-251) was 103%. The growth at 10 µM (Malme-3M) was 49.2%, the growth at 10 µM (M14) was 108% and the growth at 10 µM (MDA-MB-435) was 122%. For the same compound, the growth at 10 µM (SK-MEL-2) was 91.6%, the growth at 10 µM (SK-MEL-28) was 125% and the growth at 10 µM (SK-MEL-5) was 122%. It also gave a growth at 10 µM (UACC-257) of 106%, a growth at 10 µM (IGROV-1) of 92.4% and a growth at 10 µM (OVCAR-3) of 104%. For the same compound, the growth at 10 µM (OVCAR-5) was 97.2%, the growth at 10 µM (OVCAR-8) was 98.7% and the growth at 10 µM (NCI/ADR-RES) was 96.7%. The growth at 10 µM (786-0) was 96.5%, the growth at 10 µM (A498) was 106% and the growth at 10 µM (ACHN) was 106%. It also gave a growth at 10 µM (RXF 393) of 91.2%, a growth at 10 µM (UO-31) of 83.2% and a growth at 10 µM (MCF7) of 5.8%. The growth at 10 µM (MDA-MB-231) was 111%, the growth at 10 µM [2] was 174% and the growth at 10 µM (BT-549) was 55.6%. The growth at 10 µM (T47D) was 80.1%, the growth at 10 µM (MDA-MB-468) was 36.5% and the inhibition [3] was 85%.
